System: SARS-CoV-2
Assay: microbe, parasite or virus in culture
Type: cell-based
Settings: for Maximum confluence reached (%): 5 days

| Compound | Maximum confluence reached (%) | IC50 (Severe acute respiratory syndrome coronavirus 2, 120 h) [µM] |
| --- | --- | --- |
| COc1ccccc1[C@H](Cn1c(=O)n(C(C)(C)C(=O)O)c(=O)c2c(C)c(-c3ncco3)sc21)OC1CCOCC1 [compound 61, 2-[1-[(2R)-2-(2-Methoxyphenyl)-2-(tetrahydro-2H-pyran-4-yloxy)ethyl]-5-methyl-6-(1,3-oxazol-2-yl)-2,4-dioxo-1,4-dihydrothieno[2,3-d]pyrimidin-3(2H)-yl]-2-methylpropanoic acid] | 78.18 |  |
| CC[C@@]1([C@@H]2O[C@@H]([C@H]3O[C@@](O)(COC(=O)Nc4ccccc4)[C@H](C)C[C@@H]3C)C[C@@H]2C)CC[C@H]([C@]2(C)CC[C@]3(C[C@H](O)[C@@H](C)[C@@H]([C@@H](C)[C@@H](OC)[C@H](C)C(=O)[O-])O3)O2)O1.[Na+] [compound 98, 4(S)-[(2S,5R,7S,8R,9S)-2-[(2S,2'R,3'S,5R,5'R)-2-Ethyl-5'-[6(R)-hydroxy-3(S),5(R)-dimethyl-6-(phenylaminocarbonyloxymethyl)tetrahydropyran-2(S)-yl]-3'-methylperhydro-2,2'-bifuran-5-yl]-9-hydroxy-2,8-dimethyl-1,6-dioxaspiro[4.5]dec-7-yl]-3(R)-methoxy-2(S)-methylpentanoic acid sodium salt] | 38.24 | 3.18 |
| O=S(=O)(NCC1CC1)c1ccc(Nc2nccc(N3CCCc4cc(O)ccc43)n2)cc1 [compound 86, N-(Cyclopropylmethyl)-4-[[4-(3,4-dihydro-6-hydroxy-1(2H)-quinolinyl)-2-pyrimidinyl]amino]benzenesulfo namide] | 55.04 |  |
| Cn1c(Nc2ccc(C(F)(F)F)cc2)nc2cc(Oc3ccnc(-c4nc(C(F)(F)F)c[nH]4)c3)ccc21 [compound 70, 1-Methyl-N-[4-(trifluoromethyl)phenyl]-5-[2-[4-(trifluoromethyl)-1H-imidazol-2-yl]pyridin-4-yloxy]-1H-benzimidazol-2-amine] | 44.1 |  |

Reference: EP4000606A1, “COMPOUNDS FOR CORONAVIRUS INFECTION TREATMENT AND/OR PREVENTION” (priority 2020, dated 2022)
